Measurements: patent US9828386B2 (priority 2013, dated 2017)
Where two headings read alike, the source gives them in different places.

Assays:
Assay in all cases: cells
Type in all cases: cell-based
Hela cell line = settings: Hela cells, MTT, 48 h cultivation, read-out: IC50 (μM) Hela
Experimental: (§1) Test of compounds of embodiment of the present invention on inhibiting tumor cell activity
(§2) 3, cell lines: A549, BGC823, Hela cell line and normal human hepatocytes which are available from Wu Han boster Co., Ltd.;
(§3) A549, BGC823, Hela cell line and normal human hepatocytes in logarithmic growth phase are subjected to 1000 rpm centrifugation for 5 min, supernatant is then discarded, moderate medium is suspended, the cell concentration is adjusted to 3.5×10^4/well, the cells were seeded in 96-wells culture plate, and following experimental groups are set:
(§4) a negative control group; 35 test groups with same concentration (ie: groups of Compound (1) to Compound (35)); three control groups: groups of podophyllotoxin, 4′-demethylepipodophyllotoxin and etoposide.
(§5) Taking RPMI1640 containing 10% of calf serum as nutrient solution, 0.10 mL of cells per well is incubated under conditions of 37° C., 5% CO2 and saturated humidity for 24 h to nearly be covered, then the nutrient solution is discarded. […] 100 μl of DMSO is added to each well, then vibrated at 37° C. by shaker table for 30 min, then measuring absorbance (OD) at 492 nm, calculating MTT ratio=OD value of drug group/OD value of the negative control group.

BGC823 cell line = settings: BGC823 cells, MTT, 48 h cultivation; read-out: IC50 (μM) BGC823
Experimental: as §1, §2, §3, §4, §5

A549 cell line = settings: A549 cells, MTT, 48 h cultivation; read-out: IC50 (μM) A549
Experimental: as §1, §2, §3, §4, §5

“4-S-(5-methyl-1,2,4-triazole-3)-4-deoxy-4′-demethylepipodophyllotoxin [Compound 20]” showed an IC50 (Hela cell line) of 6.62 ± 0.35 µM, an IC50 (BGC823 cell line) of 0.21 ± 0.35 µM and an IC50 (A549 cell line) of 0.35 ± 0.37 µM.
Compound COc1cc(C2c3cc4c(cc3C(O)C3COC(=O)C23)OCO4)cc(OC)c1O (stereo not shown) [4′-demethylepipodophyllotoxins, 4′-demethylepipodophyllotoxin, reference compound] has an IC50 (Hela cell line) of 49.32 ± 0.38 µM, an IC50 (BGC823 cell line) of 63.09 ± 0.49 µM and an IC50 (A549 cell line) of 52.9 ± 0.85 µM.
With COc1cc(C2c3cc4c(cc3C(Sc3n[nH]c(N)n3)C3COC(=O)C23)OCO4)cc(OC)c1OC (stereo not drawn) [Compound 1, 4-S-(3-amino-1,2,4-triazole-5)-4-deoxy-podophyllotoxin] the IC50 (Hela cell line) was 2.86 ± 0.34 µM, the IC50 (BGC823 cell line) was 0.83 ± 0.14 µM and the IC50 (A549 cell line) was 5.76 ± 0.34 µM.
For COc1cc(C2c3cc4c(cc3C(Sc3n[nH]c(C)n3)C3COC(=O)C23)OCO4)cc(OC)c1OC (stereo not drawn) [Compound 2, 4-S-(5-methyl-1,2,4-triazole-3)-4-deoxy-podophyllotoxin], the IC50 (Hela cell line) was 0.15 ± 0.03 µM, the IC50 (BGC823 cell line) was 0.27 ± 0.03 µM and the IC50 (A549 cell line) was 1.01 ± 0.28 µM.
With COc1cc(C2c3cc4c(cc3C(Sc3nnc(N)s3)C3COC(=O)C23)OCO4)cc(OC)c1OC (stereo not drawn) [Compound 3, 4-S-(2-amino-1,3,4-thiadiazole-5)-4-deoxy-podophyllotoxin] the IC50 (Hela cell line) was 0.06 ± 0.01 µM, the IC50 (BGC823 cell line) was 0.71 ± 0.03 µM and the IC50 (A549 cell line) was 1.98 ± 2.54 µM.
Work on COc1cc(C2c3cc4c(cc3C(Sc3nnc(C)s3)C3COC(=O)C23)OCO4)cc(OC)c1OC (stereo not drawn) [Compound 4, 4-S-(5-methyl-1,3,4-thiadiazol-2)-4-deoxy-podophyllotoxin] yielded an IC50 (Hela cell line) of 2.18 ± 0.07 µM, an IC50 (BGC823 cell line) of 4.01 ± 0.02 µM and an IC50 (A549 cell line) of 4.11 ± 0.93 µM.
With COc1cc(C2c3cc4c(cc3C(Sc3ccccn3)C3COC(=O)C23)OCO4)cc(OC)c1OC (stereo not drawn) [Compound 5, 4-S-(pyridin-2)-4-deoxy-podophyllotoxin] the IC50 (Hela cell line) was 0.73 ± 0.05 µM, the IC50 (BGC823 cell line) was 4.76 ± 0.12 µM and the IC50 (A549 cell line) was 5.66 ± 0.47 µM.
COc1cc(C2c3cc4c(cc3C(Sc3ncccc3C(=O)O)C3COC(=O)C23)OCO4)cc(OC)c1OC (stereo not drawn) [Compound 6, 4-S-(3-picolinate-2)-4-deoxy-podophyllotoxin] showed an IC50 (Hela cell line) of 1.71 ± 0.07 µM, an IC50 (BGC823 cell line) of 2.65 ± 0.53 µM and an IC50 (A549 cell line) of 0.83 ± 0.25 µM.
In the case of COc1cc(C2c3cc4c(cc3C(Sc3cccc(C)n3)C3COC(=O)C23)OCO4)cc(OC)c1OC (stereo not drawn) [Compound 7, 4-S-(6-methyl-pyridin-2)-4-deoxy-podophyllotoxin], the IC50 (Hela cell line) is reported as 0.9 ± 0.05 µM, the IC50 (BGC823 cell line) is reported as 3.51 ± 0.14 µM and the IC50 (A549 cell line) is reported as 1.12 ± 0.28 µM.
For COc1cc(C2c3cc4c(cc3C(Sc3ccncc3)C3COC(=O)C23)OCO4)cc(OC)c1OC (stereo not drawn) [Compound 8, 4-S-(pyridin-4)-4-deoxy-podophyllotoxin], the IC50 (Hela cell line) was 3.85 ± 0.14 µM, the IC50 (BGC823 cell line) was 1.52 ± 0.11 µM and the IC50 (A549 cell line) was 8.12 ± 0.09 µM.
COc1cc(C2c3cc4c(cc3C(Sc3ncccn3)C3COC(=O)C23)OCO4)cc(OC)c1OC (stereo not drawn) [Compound 9, 4-S-(pyrimidine-2)-4-deoxy-podophyllotoxin] showed an IC50 (Hela cell line) of 3.64 ± 0.46 µM, an IC50 (BGC823 cell line) of 0.71 ± 0.14 µM and an IC50 (A549 cell line) of 6.4 ± 0.38 µM.
For COc1cc(C2c3cc4c(cc3C(Sc3nccc(N)n3)C3COC(=O)C23)OCO4)cc(OC)c1OC (stereo not drawn) [Compound 10, 4-S-(4-amino-pyrimidine-2)-4-deoxy-podophyllotoxin], the IC50 (Hela cell line) was 1.85 ± 0.12 µM, the IC50 (BGC823 cell line) was 1.32 ± 0.15 µM and the IC50 (A549 cell line) was 4.65 ± 0.26 µM.
COc1cc(C2c3cc4c(cc3C(Sc3nc(C)cc(C)n3)C3COC(=O)C23)OCO4)cc(OC)c1OC (stereo not drawn) [Compound 11, 4-S-(4,6-dimethyl-pyrimidine-2)-4-deoxy-podophyllotoxin] was tested, and the IC50 (Hela cell line) was 0.11 ± 0.01 µM, the IC50 (BGC823 cell line) was 1.99 ± 0.34 µM and the IC50 (A549 cell line) was 3.31 ± 0.26 µM.
For COc1cc(C2c3cc4c(cc3C(Sc3nc5ccccc5s3)C3COC(=O)C23)OCO4)cc(OC)c1OC (stereo not drawn) [Compound 12, 4-S-(benzothiazol-2)-4-deoxy-podophyllotoxin], the IC50 (Hela cell line) was 0.6 ± 0.39 µM, the IC50 (BGC823 cell line) was 0.31 ± 0.34 µM and the IC50 (A549 cell line) was 3.85 ± 0.47 µM.
COc1cc(C2c3cc4c(cc3C(Sc3nc5ccccc5[nH]3)C3COC(=O)C23)OCO4)cc(OC)c1OC (stereo not drawn) [Compound 13, 4-S-(benzimidazol-2)-4-deoxy-podophyllotoxin] gave an IC50 (Hela cell line) of 3.1 ± 0.16 µM, an IC50 (BGC823 cell line) of 2.32 ± 0.01 µM and an IC50 (A549 cell line) of 6.76 ± 4.31 µM.
COc1cc(C2c3cc4c(cc3C(Sc3nc5ccccc5o3)C3COC(=O)C23)OCO4)cc(OC)c1OC (stereo not drawn) [Compound 14, 4-S-(benzoxazole-2)-4-deoxy-podophyllotoxin] was tested, and the IC50 (Hela cell line) was 0.92 ± 0.08 µM, the IC50 (BGC823 cell line) was 0.21 ± 0.02 µM and the IC50 (A549 cell line) was 1.01 ± 0.14 µM.
In the case of COc1cc(C2c3cc4c(cc3C(Sc3nc(NS(=O)(=O)c5ccc(C)cc5)n[nH]3)C3COC(=O)C23)OCO4)cc(OC)c1OC (stereo not drawn) [Compound 15, 4-S-[3-N-(4-methyl-benzenesulfonamide-)-1,2,4-triazole-5-]-4-deoxy-podophyllotoxin], the IC50 (Hela cell line) is reported as 0.6 ± 0.08 µM, the IC50 (BGC823 cell line) is reported as 1.69 ± 0.07 µM and the IC50 (A549 cell line) is reported as 2.36 ± 0.23 µM.
Compound COc1ccc(S(=O)(=O)Nc2n[nH]c(SC3c4cc5c(cc4C(c4cc(OC)c(OC)c(OC)c4)C4C(=O)OCC34)OCO5)n2)cc1 (stereo not drawn) [Compound 16, 4-S-[3-N-(4-methoxy-benzenesulfonamide-)-1,2,4-triazole-5-]-4-deoxy-podophyllotoxin] has an IC50 (Hela cell line) of 1.56 ± 0.05 µM, an IC50 (BGC823 cell line) of 0.67 ± 0.05 µM and an IC50 (A549 cell line) of 1.24 ± 0.33 µM.
COc1cc(C2c3cc4c(cc3C(Sc3nnc(NS(=O)(=O)c5ccc(C)cc5)s3)C3COC(=O)C23)OCO4)cc(OC)c1OC (stereo not drawn) [Compound 17, 4-S-[2-N-(4-methyl-benzenesulfonamide-)-1,3,4-thiadiazole-5-]-4-deoxy-podophyllotoxin] gave an IC50 (Hela cell line) of 0.97 ± 0.02 µM, an IC50 (BGC823 cell line) of 1.04 ± 0.13 µM and an IC50 (A549 cell line) of 1.12 ± 1.74 µM.
Compound COc1ccc(S(=O)(=O)Nc2nnc(SC3c4cc5c(cc4C(c4cc(OC)c(OC)c(OC)c4)C4C(=O)OCC34)OCO5)s2)cc1 (stereo not drawn) [Compound 18, 4-S-[2-N-(4-methoxy-benzenesulfonamide-)-1,3,4-thiadiazole-5-]-4-deoxy-podophyllotoxin] has an IC50 (Hela cell line) of 4.14 ± 0.47 µM, an IC50 (BGC823 cell line) of 1.27 ± 0.13 µM and an IC50 (A549 cell line) of 4.05 ± 0.15 µM.
With COc1cc(C2c3cc4c(cc3C(Sc3nc(N)n[nH]3)C3COC(=O)C23)OCO4)cc(OC)c1O (stereo not drawn) [Compound 19, 4-S-(3-amino-1,2,4-triazole-5)-4-deoxy-4′-demethylepipodophyllotoxin] the IC50 (Hela cell line) was 1.51 ± 0.37 µM, the IC50 (BGC823 cell line) was 1.93 ± 1.67 µM and the IC50 (A549 cell line) was 0.93 ± 0.84 µM.
In the case of COc1cc(C2c3cc4c(cc3C(Sc3nnc(C)s3)C3COC(=O)C23)OCO4)cc(OC)c1O (stereo not drawn) [Compound 21, 4-S-(5-methyl-1,3,4-thiadiazol-2)-4-deoxy-4′-demethylepipodophyllotoxin], the IC50 (Hela cell line) is reported as 0.52 µM, the IC50 (BGC823 cell line) is reported as 0.83 ± 0.14 µM and the IC50 (A549 cell line) is reported as 5.76 ± 0.18 µM.
Work on COc1cc(C2c3cc4c(cc3C(Sc3ccccn3)C3COC(=O)C23)OCO4)cc(OC)c1O (stereo not drawn) [Compound 22, 4-S-(pyridin-2)-4-deoxy-4′-demethylepipodophyllotoxin] yielded an IC50 (Hela cell line) of 2.31 ± 0.31 µM, an IC50 (BGC823 cell line) of 0.27 ± 0.03 µM and an IC50 (A549 cell line) of 1.01 ± 0.38 µM.
COc1cc(C2c3cc4c(cc3C(Sc3ncccc3C(=O)O)C3COC(=O)C23)OCO4)cc(OC)c1O (stereo not drawn) [Compound 23, 4-S-(3-picolinate-2)-deoxy-4′-demethylepipodophyllotoxin] gave an IC50 (Hela cell line) of 1.22 ± 0.25 µM, an IC50 (BGC823 cell line) of 6.68 ± 0.04 µM and an IC50 (A549 cell line) of 2.03 ± 0.45 µM.
In the case of COc1cc(C2c3cc4c(cc3C(Sc3cccc(C)n3)C3COC(=O)C23)OCO4)cc(OC)c1O (stereo not drawn) [Compound 24, 4-S-(6-methyl-pyridin-2)-4-deoxy-4′-demethylepipodophyllotoxin], the IC50 (Hela cell line) is reported as 7.18 ± 0.07 µM, the IC50 (BGC823 cell line) is reported as 4.01 ± 0.02 µM and the IC50 (A549 cell line) is reported as 1.11 ± 0.94 µM.
COc1cc([C@@H]2c3cc4c(cc3[C@@H](O[C@@H]3O[C@@H]5CO[C@@H](C)O[C@H]5[C@H](O)[C@H]3O)[C@H]3COC(=O)[C@H]23)OCO4)cc(OC)c1O [etoposide, reference compound] gave an IC50 (Hela cell line; Homo sapiens) of 13.2 ± 1.65 µM.
